# Laboratory results: patent publication US6737383B1, “Herbicidal oxadiazolidines” (priority 1999, dated 2004)
# Columns and labels:
# soybean = test: Test B pre/postemergence soybean; assay type: in vivo, Glycine max
# Outline: (§1)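 Test chemicals in a non-phytotoxic solvent mixture with surfactant were sprayed preemergence onto planted seeds and postemergence onto plants 2 to 18 cm tall (1- to 4-leaf stage). After twelve to sixteen days in a greenhouse, injury was visually rated against untreated controls from 0 (no effect) to 10 (complete control).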
# wheat = test: Test B pre/postemergence wheat; assay type: in vivo, Triticum aestivum
# Outline: as §1
# crabgrass = test: Test B pre/postemergence crabgrass; assay type: in vivo, Digitaria sanguinalis
# Outline: as §1
# giant foxtail = test: Test B pre/postemergence giant foxtail; assay type: in vivo, Setaria faberii
# Outline: as §1
# sugar beet = test: Test B pre/postemergence sugar beet; assay type: in vivo, Beta vulgaris
# Outline: as §1
# surinam grass = test: Test B pre/postemergence surinam grass; assay type: in vivo, Brachiaria decumbens
# Outline: as §1
# blackgrass = test: Test B pre/postemergence blackgrass; assay type: in vivo, Alopecurus myosuroides
# Outline: as §1
# velvetleaf = test: Test B pre/postemergence velvetleaf; assay type: in vivo, Abutilon theophrasti
# Outline: as §1
# pigweed = test: Test B pre/postemergence pigweed; assay type: in vivo, Amaranthus retroflexus
# Outline: as §1
# corn = test: Test B pre/postemergence corn; assay type: in vivo, Zea mays
# Outline: as §1
# wild oat = test: Test B pre/postemergence wild oat; assay type: in vivo, Avena fatua
# Outline: as §1
# rape = test: Test B pre/postemergence rape; assay type: in vivo, Brassica napus
# Outline: as §1
# cocklebur = test: Test B pre/postemergence cocklebur; assay type: in vivo, Xanthium strumarium
# Outline: as §1
# bedstraw = test: Test B pre/postemergence bedstraw; assay type: in vivo, Galium aparine
# Outline: as §1
# purple nutsedge = test: Test B pre/postemergence purple nutsedge; assay type: in vivo, Cyperus rotundus
# Outline: as §1
# morningglory = test: Test B pre/postemergence morningglory; assay type: in vivo, Ipomoea hederacea
# Outline: as §1
# [1] = Postemergence, Rate 31 g/ha, visual rating, scale 0 to 10 (0 no effect, 10 complete control)
# [2] = Postemergence, Rate 125 g/ha, scale 0 to 10, 0 is no effect, 10 is complete control
# [3] = Postemergence, Rate 250 g/ha, scale 0 to 10, 0 is no effect, 10 is complete control
# [4] = Preemergence, Rate 62 g/ha, scale 0 to 10 (0 no effect, 10 complete control)
# [5] = Preemergence, Rate 250 g/ha, scale of 0 to 10 where 0 is no effect and 10 is complete control
# [6] = Rate 62 g/ha, Postemergence, scale of 0 to 10 where 0 is no effect and 10 is complete control
# [7] = Preemergence, Rate 31 g/ha, visual rating, scale 0 to 10 (0 no effect, 10 complete control)
structure (smiles),measurement,setting,value
CC(C)N(C(=O)n1oc(=O)n(C2(C)CC2)c1=O)c1ccc(F)cc1 [Compound 362],Soybean plant response rating,soybean; [1],4
same,"Plant response rating, Soybean",soybean; [2],5
same,"Plant response rating, Soybean",soybean; [3],6
same,"Plant response rating, Soybean",soybean; [4],0
same,Soybean plant response rating (0 to 10 scale),"soybean; Preemergence, Rate 125 g/ha",1
same,Soybean plant response rating,soybean; [5],6
same,Soybean plant response rating,soybean; [6],4
same,Wheat plant response rating,wheat; [1],0
same,"Plant response rating, Wheat",wheat; [2],4
same,"Plant response rating, Wheat",wheat; [3],6
same,"Plant response rating, Wheat",wheat; [4],7
same,Wheat plant response rating (0 to 10 scale),"wheat; Preemergence, Rate 125 g/ha",8
same,Wheat plant response rating,wheat; [5],8
same,Wheat plant response rating,wheat; [6],2
same,Crabgrass plant response rating,crabgrass; [1],3
same,"Plant response rating, Crabgrass",crabgrass; [2],6
same,"Plant response rating, Crabgrass",crabgrass; [3],6
same,"Plant response rating, Crabgrass",crabgrass; [4],5
same,Crabgrass plant response rating (0 to 10 scale),"crabgrass; Preemergence, Rate 125 g/ha",8
same,Crabgrass plant response rating,crabgrass; [5],8
same,Crabgrass plant response rating,crabgrass; [6],3
same,Giant foxtail plant response rating,giant foxtail; [1],5
same,"Plant response rating, Giant foxtail",giant foxtail; [2],8
same,"Plant response rating, Giant foxtail",giant foxtail; [3],9
same,"Plant response rating, Giant foxtail",giant foxtail; [4],10
same,Giant foxtail plant response rating (0 to 10 scale),"giant foxtail; Preemergence, Rate 125 g/ha",10
same,Giant foxtail plant response rating,giant foxtail; [5],10
same,Giant foxtail plant response rating,giant foxtail; [6],6
same,Sugarbeets plant response rating,sugar beet; [1],0
same,"Plant response rating, Sugarbeets",sugar beet; [2],0
same,"Plant response rating, Sugarbeets",sugar beet; [3],2
same,"Plant response rating, Sugarbeets",sugar beet; [4],5
same,Sugarbeets plant response rating (0 to 10 scale),"sugar beet; Preemergence, Rate 125 g/ha",7
same,Sugarbeets plant response rating,sugar beet; [5],8
same,Sugarbeets plant response rating,sugar beet; [6],0
same,B. signalgrass plant response rating,surinam grass; [1],1
same,"Plant response rating, B. signalgrass",surinam grass; [2],5
same,"Plant response rating, B. signalgrass",surinam grass; [3],7
same,B. signalgrass plant response rating,surinam grass; [7],2
same,"Plant response rating, B. signalgrass",surinam grass; [4],4
same,"B. signalgrass plant response rating (0 to 10 scale, 0 is no effect, 10 is complete control)","surinam grass; Preemergence, Rate 125 g/ha",6
same,B. signalgrass plant response rating,surinam grass; [5],7
same,B. signalgrass plant response rating,surinam grass; [6],2
same,Blackgrass plant response rating,blackgrass; [1],8
same,"Plant response rating, Blackgrass",blackgrass; [2],8
same,"Plant response rating, Blackgrass",blackgrass; [3],8
same,Blackgrass plant response rating,blackgrass; [7],8
same,"Plant response rating, Blackgrass",blackgrass; [4],9
same,Blackgrass plant response rating (0 to 10 scale),"blackgrass; Preemergence, Rate 125 g/ha",10
same,Blackgrass plant response rating,blackgrass; [5],10
same,Blackgrass plant response rating,blackgrass; [6],8
same,Velvetleaf plant response rating,velvetleaf; [1],0
same,"Plant response rating, Velvetleaf",velvetleaf; [2],4
same,"Plant response rating, Velvetleaf",velvetleaf; [3],7
same,"Plant response rating, Velvetleaf",velvetleaf; [4],4
same,Velvetleaf plant response rating (0 to 10 scale),"velvetleaf; Preemergence, Rate 125 g/ha",6
same,Velvetleaf plant response rating,velvetleaf; [5],6
same,Velvetleaf plant response rating,velvetleaf; [6],1
same,Redroot pigweed plant response rating,pigweed; [1],0
same,"Plant response rating, Redroot pigweed",pigweed; [2],4
same,"Plant response rating, Redroot pigweed",pigweed; [3],6
same,"Plant response rating, Redroot pigweed",pigweed; [4],8
same,Redroot pigweed plant response rating (0 to 10 scale),"pigweed; Preemergence, Rate 125 g/ha",10
same,Redroot pigweed plant response rating,pigweed; [5],10
same,Redroot pigweed plant response rating,pigweed; [6],2
same,Corn plant response rating,corn; [1],0
same,"Plant response rating, Corn",corn; [2],0
same,"Plant response rating, Corn",corn; [3],0
same,Corn plant response rating,corn; [7],0
same,"Plant response rating, Corn",corn; [4],0
same,Corn plant response rating (0 to 10 scale),"corn; Preemergence, Rate 125 g/ha",3
same,Corn plant response rating,corn; [5],9
same,Corn plant response rating,corn; [6],0
same,Wild oats plant response rating,wild oat; [1],0
same,"Plant response rating, Wild oats",wild oat; [2],6
same,"Plant response rating, Wild oats",wild oat; [3],6
same,"Plant response rating, Wild oats",wild oat; [4],7
same,Wild oats plant response rating (0 to 10 scale),"wild oat; Preemergence, Rate 125 g/ha",10
same,Wild oats plant response rating,wild oat; [5],10
same,Wild oats plant response rating,wild oat; [6],3
same,Rape plant response rating,rape; [1],0
same,"Plant response rating, Rape",rape; [2],0
same,"Plant response rating, Rape",rape; [3],0
same,"Plant response rating, Rape",rape; [4],0
same,Rape plant response rating (0 to 10 scale),"rape; Preemergence, Rate 125 g/ha",3
same,Rape plant response rating,rape; [5],6
same,Rape plant response rating,rape; [6],0
same,Cocklebur plant response rating,cocklebur; [1],0
same,"Plant response rating, Cocklebur",cocklebur; [2],0
same,Cocklebur plant response rating,cocklebur; [7],0
same,"Plant response rating, Cocklebur",cocklebur; [4],0
same,Cocklebur plant response rating (0 to 10 scale),"cocklebur; Preemergence, Rate 125 g/ha",0
same,Cocklebur plant response rating,cocklebur; [5],0
same,Cocklebur plant response rating,cocklebur; [6],0
same,Bedstraw plant response rating,bedstraw; [1],5
same,"Plant response rating, Bedstraw",bedstraw; [2],9
same,"Plant response rating, Bedstraw",bedstraw; [3],9
same,Bedstraw plant response rating,bedstraw; [7],8
same,"Plant response rating, Bedstraw",bedstraw; [4],9
same,Bedstraw plant response rating (0 to 10 scale),"bedstraw; Preemergence, Rate 125 g/ha",9
same,Bedstraw plant response rating,bedstraw; [5],10
same,Bedstraw plant response rating,bedstraw; [6],5
same,Nutsedge plant response rating,purple nutsedge; [1],0
same,"Plant response rating, Nutsedge",purple nutsedge; [2],0
same,"Plant response rating, Nutsedge",purple nutsedge; [3],0
same,"Plant response rating, Nutsedge",purple nutsedge; [4],0
same,Nutsedge plant response rating (0 to 10 scale),"purple nutsedge; Preemergence, Rate 125 g/ha",0
same,Nutsedge plant response rating,purple nutsedge; [5],3
same,Nutsedge plant response rating,purple nutsedge; [6],0
same,Morningglory plant response rating,morningglory; [1],0
same,"Plant response rating, Morningglory",morningglory; [2],1
same,"Plant response rating, Morningglory",morningglory; [3],1
same,"Plant response rating, Morningglory",morningglory; [4],0
same,Morningglory plant response rating (0 to 10 scale),"morningglory; Preemergence, Rate 125 g/ha",4
same,Morningglory plant response rating,morningglory; [5],6
same,Morningglory plant response rating,morningglory; [6],1
